Results reported in PubChem BioAssay AID2060490 (Molecular Pharmacology Branch, DTP, NCI, 2025).

Test system: 885512-296-R-J2-PDC complex spheroid viability
Experiment: Anticancer human tumor 885512-296-R-J2-PDC patient-derived breast carcinoma cell line growth inhibition [GQUAD]
Details: for IC50: curve of first compound; for viability, T/C: stronger effect = lower value
How it was run: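 Viability of tumor cells grown as complex spheroids with endothelial and stromal cells, exposed to drug combinations. Top concentration at or near clinical Cmax (else 10 microM), diluted in half-log increments.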

[1] = second compound 0.0316 µM, first compound 0.0316 µM
[2] = second compound 0.0316 µM, first compound 0.1 µM
[3] = second compound 0.0316 µM, first compound 0.316 µM
[4] = second compound 0.0316 µM, first compound 1 µM
[5] = second compound 0.0316 µM, first compound 3.16 µM
[6] = second compound 0.0316 µM, first compound 10 µM
[7] = second compound 0.1 µM, first compound 0.0316 µM
[8] = second compound 0.1 µM, first compound 0.1 µM
[9] = second compound 0.1 µM, first compound 0.316 µM
[10] = second compound 0.1 µM, first compound 1 µM
[11] = second compound 0.1 µM, first compound 3.16 µM
[12] = second compound 0.1 µM, first compound 10 µM
[13] = second compound 0.316 µM, first compound 0.0316 µM
[14] = second compound 0.316 µM, first compound 0.1 µM
[15] = second compound 0.316 µM, first compound 0.316 µM
[16] = second compound 0.316 µM, first compound 1 µM
[17] = second compound 0.316 µM, first compound 3.16 µM
[18] = second compound 0.316 µM, first compound 10 µM
[19] = second compound 1 µM, first compound 0.0316 µM
[20] = second compound 1 µM, first compound 0.1 µM
[21] = second compound 1 µM, first compound 0.316 µM
[22] = second compound 1 µM, first compound 1 µM
[23] = second compound 1 µM, first compound 3.16 µM
[24] = second compound 1 µM, first compound 10 µM
[25] = second compound 3.16 µM, first compound 0.0316 µM
[26] = second compound 3.16 µM, first compound 0.1 µM
[27] = second compound 3.16 µM, first compound 0.316 µM
[28] = second compound 3.16 µM, first compound 1 µM
[29] = second compound 3.16 µM, first compound 3.16 µM
[30] = second compound 3.16 µM, first compound 10 µM
[31] = second compound 10 µM, first compound 0.0316 µM
[32] = second compound 10 µM, first compound 0.1 µM
[33] = second compound 10 µM, first compound 0.316 µM
[34] = second compound 10 µM, first compound 1 µM
[35] = second compound 10 µM, first compound 3.16 µM
[36] = second compound 10 µM, first compound 10 µM
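Also: spheroids exposed to the compounds for one week.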
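For viability, T/C in this document: percent of tumor spheroid viability relative to DMSO vehicle control wells.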

SMILES: CCCS(=O)(=O)Nc1ccc(F)c(C(=O)c2c[nH]c3ncc(-c4ccc(Cl)cc4)cc23)c1F + Cc1[nH]c2ccc(F)cc2c1-c1nc2c3cccnc3c3ncccc3c2[nH]1
- IC50 (second compound 0.0316 µM): 393 nM
- IC50 (second compound 0.1 µM): 406 nM
- IC50 (second compound 0.316 µM): 183 nM
- IC50 (second compound 1 µM): 49.3 nM
- IC50 (second compound 3.16 µM): < 31.6 nM
- IC50 (second compound 10 µM): < 31.6 nM
- viability, T/C [1]: 112%
- viability, T/C [2]: 98.4%
- viability, T/C [3]: 60.7%
- viability, T/C [4]: 8.66%
- viability, T/C [5]: 3.89%
- viability, T/C [6]: 2.96%
- viability, T/C [7]: 121%
- viability, T/C [8]: 101%
- viability, T/C [9]: 64%
- viability, T/C [10]: 8.42%
- viability, T/C [11]: 2.95%
- viability, T/C [12]: 3.79%
- viability, T/C [13]: 94.4%
- viability, T/C [14]: 74%
- viability, T/C [15]: 28.7%
- viability, T/C [16]: 2.94%
- viability, T/C [17]: 2.46%
- viability, T/C [18]: 4.34%
- viability, T/C [19]: 68.3%
- viability, T/C [20]: 20.9%
- viability, T/C [21]: 4.4%
- viability, T/C [22]: 2.04%
- viability, T/C [23]: 2.3%
- viability, T/C [24]: 2.75%
- viability, T/C [25]: 4.29%
- viability, T/C [26]: 3.06%
- viability, T/C [27]: 1.78%
- viability, T/C [28]: 2%
- viability, T/C [29]: 2.26%
- viability, T/C [30]: 2.26%
- viability, T/C [31]: 1.32%
- viability, T/C [32]: 1.38%
- viability, T/C [33]: 1.47%
- viability, T/C [34]: 1.65%
- viability, T/C [35]: 2.7%
- viability, T/C [36]: 3.37%

SMILES: COc1cc(C2c3cc4c(cc3C(OC3OC5COC(C)OC5C(O)C3O)C3COC(=O)C23)OCO4)cc(OC)c1O (stereo not given) + Cc1cnc(CNC(=O)c2c(=O)c3ccc(N4CCCN(C)CC4)nc3n3c2sc2ccccc23)cn1
- IC50 (second compound 0.0316 µM): 318 nM
- IC50 (second compound 0.1 µM): 187 nM
- IC50 (second compound 0.316 µM): < 31.6 nM
- IC50 (second compound 1 µM): < 31.6 nM
- IC50 (second compound 3.16 µM): < 31.6 nM
- IC50 (second compound 10 µM): < 31.6 nM
- viability, T/C [1]: 80.8%
- viability, T/C [2]: 81%
- viability, T/C [3]: 48%
- viability, T/C [4]: 22.8%
- viability, T/C [5]: 13.4%
- viability, T/C [6]: 10.5%
- viability, T/C [7]: 57.2%
- viability, T/C [8]: 55.8%
- viability, T/C [9]: 45%
- viability, T/C [10]: 28%
- viability, T/C [11]: 13.7%
- viability, T/C [12]: 11.4%
- viability, T/C [13]: 26%
- viability, T/C [14]: 34.3%
- viability, T/C [15]: 23.3%
- viability, T/C [16]: 24.1%
- viability, T/C [17]: 16.4%
- viability, T/C [18]: 8.65%
- viability, T/C [19]: 29%
- viability, T/C [20]: 21.8%
- viability, T/C [21]: 23.6%
- viability, T/C [22]: 21.1%
- viability, T/C [23]: 21.3%
- viability, T/C [24]: 14.2%
- viability, T/C [25]: 34%
- viability, T/C [26]: 28.4%
- viability, T/C [27]: 29.6%
- viability, T/C [28]: 23.5%
- viability, T/C [29]: 22.3%
- viability, T/C [30]: 17.7%
- viability, T/C [31]: 0.09%
- viability, T/C [32]: 0.17%
- viability, T/C [33]: 0.18%
- viability, T/C [34]: 0.15%
- viability, T/C [35]: 0.16%
- viability, T/C [36]: 0.18%

SMILES: O=C(c1cc(Cc2n[nH]c(=O)c3ccccc23)ccc1F)N1CCN(C(=O)C2CC2)CC1 + Cc1cnc(CNC(=O)c2c(=O)c3ccc(N4CCCN(C)CC4)nc3n3c2sc2ccccc23)cn1
- IC50 (second compound 0.0316 µM): 2560 nM
- IC50 (second compound 0.1 µM): 551 nM
- IC50 (second compound 0.316 µM): < 31.6 nM
- IC50 (second compound 1 µM): < 31.6 nM
- IC50 (second compound 3.16 µM): < 31.6 nM
- IC50 (second compound 10 µM): < 31.6 nM
- viability, T/C [1]: 78.3%
- viability, T/C [2]: 69.4%
- viability, T/C [3]: 95.4%
- viability, T/C [4]: 83.6%
- viability, T/C [5]: 42.9%
- viability, T/C [6]: 23.8%
- viability, T/C [7]: 57.4%
- viability, T/C [8]: 55.5%
- viability, T/C [9]: 53.2%
- viability, T/C [10]: 46.8%
- viability, T/C [11]: 35.4%
- viability, T/C [12]: 22.5%
- viability, T/C [13]: 28.4%
- viability, T/C [14]: 26.7%
- viability, T/C [15]: 25.7%
- viability, T/C [16]: 17.6%
- viability, T/C [17]: 10.7%
- viability, T/C [18]: 15.5%
- viability, T/C [19]: 23.4%
- viability, T/C [20]: 22.8%
- viability, T/C [21]: 25.7%
- viability, T/C [22]: 21%
- viability, T/C [23]: 18%
- viability, T/C [24]: 18.4%
- viability, T/C [25]: 25%
- viability, T/C [26]: 26.6%
- viability, T/C [27]: 27%
- viability, T/C [28]: 24.5%
- viability, T/C [29]: 23%
- viability, T/C [30]: 8.85%
- viability, T/C [31]: 0.44%
- viability, T/C [32]: 0.21%
- viability, T/C [33]: 0.23%
- viability, T/C [34]: 0.19%
- viability, T/C [35]: 0.23%
- viability, T/C [36]: 0.19%

SMILES: CC(=O)O[C@H]1C(=O)[C@@]2(C)[C@H]([C@H](OC(=O)c3ccccc3)[C@]3(O)C[C@H](OC(=O)[C@H](O)[C@@H](NC(=O)c4ccccc4)c4ccccc4)C(C)=C1C3(C)C)[C@]1(OC(C)=O)CO[C@@H]1C[C@@H]2O + Cc1[nH]c2ccc(F)cc2c1-c1nc2c3cccnc3c3ncccc3c2[nH]1
- IC50 (second compound 0.0316 µM): 148 nM
- IC50 (second compound 0.1 µM): 176 nM
- IC50 (second compound 0.316 µM): 240 nM
- IC50 (second compound 1 µM): 117 nM
- IC50 (second compound 3.16 µM): < 31.6 nM
- IC50 (second compound 10 µM): < 31.6 nM
- viability, T/C [1]: 100%
- viability, T/C [2]: 67.2%
- viability, T/C [3]: 16.9%
- viability, T/C [4]: 3.76%
- viability, T/C [5]: 1%
- viability, T/C [6]: 0.76%
- viability, T/C [7]: 90.5%
- viability, T/C [8]: 77.2%
- viability, T/C [9]: 21.5%
- viability, T/C [10]: 5.55%
- viability, T/C [11]: 0.13%
- viability, T/C [12]: 0.12%
- viability, T/C [13]: 78.4%
- viability, T/C [14]: 70.6%
- viability, T/C [15]: 43.7%
- viability, T/C [16]: 5.11%
- viability, T/C [17]: 0.81%
- viability, T/C [18]: 0.08%
- viability, T/C [19]: 52.8%
- viability, T/C [20]: 58.1%
- viability, T/C [21]: 16.4%
- viability, T/C [22]: 1.87%
- viability, T/C [23]: 0.21%
- viability, T/C [24]: 0.41%
- viability, T/C [25]: 3.83%
- viability, T/C [26]: 6.17%
- viability, T/C [27]: 8.48%
- viability, T/C [28]: 0.24%
- viability, T/C [29]: 0.53%
- viability, T/C [30]: 0.46%
- viability, T/C [31]: 1.53%
- viability, T/C [32]: 1.57%
- viability, T/C [33]: 4.36%
- viability, T/C [34]: 0.21%
- viability, T/C [35]: 0.84%
- viability, T/C [36]: 1.07%

SMILES: COc1ncnc(C2CC2)c1-c1ncc2cnn(Cc3ccc(-c4nc(C(F)(F)F)cn4C(C)C)cc3)c2n1 + Cc1[nH]c2ccc(F)cc2c1-c1nc2c3cccnc3c3ncccc3c2[nH]1
- IC50 (second compound 0.0316 µM): 948 nM
- IC50 (second compound 0.1 µM): 660 nM
- IC50 (second compound 0.316 µM): 564 nM
- IC50 (second compound 1 µM): 93.9 nM
- IC50 (second compound 3.16 µM): < 31.6 nM
- IC50 (second compound 10 µM): < 31.6 nM
- viability, T/C [1]: 89.9%
- viability, T/C [2]: 82.6%
- viability, T/C [3]: 64.5%
- viability, T/C [4]: 52.1%
- viability, T/C [5]: 25.1%
- viability, T/C [6]: 2.97%
- viability, T/C [7]: 104%
- viability, T/C [8]: 83.5%
- viability, T/C [9]: 66.7%
- viability, T/C [10]: 38.7%
- viability, T/C [11]: 23.7%
- viability, T/C [12]: 2.95%
- viability, T/C [13]: 88.5%
- viability, T/C [14]: 78.3%
- viability, T/C [15]: 60.5%
- viability, T/C [16]: 34.5%
- viability, T/C [17]: 27.8%
- viability, T/C [18]: 2.76%
- viability, T/C [19]: 59.2%
- viability, T/C [20]: 49.4%
- viability, T/C [21]: 37.4%
- viability, T/C [22]: 28.5%
- viability, T/C [23]: 25.1%
- viability, T/C [24]: 2.31%
- viability, T/C [25]: 5.23%
- viability, T/C [26]: 4.49%
- viability, T/C [27]: 2.87%
- viability, T/C [28]: 4.14%
- viability, T/C [29]: 3.49%
- viability, T/C [30]: 0.54%
- viability, T/C [31]: 1.44%
- viability, T/C [32]: 1.29%
- viability, T/C [33]: 1.4%
- viability, T/C [34]: 2.23%
- viability, T/C [35]: 2.81%
- viability, T/C [36]: 0.35%
